Source: PMC7571175, “N-Benzyl Residues as the P1′ Substituents in Phosphorus-Containing Extended Transition State Analog Inhibitors of Metalloaminopeptidases” (Molecules, 2020)
Like-named read-outs stand apart in the source and are kept apart here.

Assays:
[1] = molecular target: T1, microsomal alanyl aminopeptidase from porcine kidney (SsAPN) (Sus scrofa, UniProt P15145); assay: Inhibition of porcine kidney alanyl aminopeptidase (enzyme kinetics); format: biochemical; conditions: porcine APN; compounds assayed as racemic mixtures
T1 construct: Microsomal alanyl aminopeptidase from porcine kidney (SsAPN) was purchased from Sigma-Aldrich; purchased Sigma-Aldrich (Poznań, Poland); host or cells: porcine kidney
T1 sequence (P15145 1-963): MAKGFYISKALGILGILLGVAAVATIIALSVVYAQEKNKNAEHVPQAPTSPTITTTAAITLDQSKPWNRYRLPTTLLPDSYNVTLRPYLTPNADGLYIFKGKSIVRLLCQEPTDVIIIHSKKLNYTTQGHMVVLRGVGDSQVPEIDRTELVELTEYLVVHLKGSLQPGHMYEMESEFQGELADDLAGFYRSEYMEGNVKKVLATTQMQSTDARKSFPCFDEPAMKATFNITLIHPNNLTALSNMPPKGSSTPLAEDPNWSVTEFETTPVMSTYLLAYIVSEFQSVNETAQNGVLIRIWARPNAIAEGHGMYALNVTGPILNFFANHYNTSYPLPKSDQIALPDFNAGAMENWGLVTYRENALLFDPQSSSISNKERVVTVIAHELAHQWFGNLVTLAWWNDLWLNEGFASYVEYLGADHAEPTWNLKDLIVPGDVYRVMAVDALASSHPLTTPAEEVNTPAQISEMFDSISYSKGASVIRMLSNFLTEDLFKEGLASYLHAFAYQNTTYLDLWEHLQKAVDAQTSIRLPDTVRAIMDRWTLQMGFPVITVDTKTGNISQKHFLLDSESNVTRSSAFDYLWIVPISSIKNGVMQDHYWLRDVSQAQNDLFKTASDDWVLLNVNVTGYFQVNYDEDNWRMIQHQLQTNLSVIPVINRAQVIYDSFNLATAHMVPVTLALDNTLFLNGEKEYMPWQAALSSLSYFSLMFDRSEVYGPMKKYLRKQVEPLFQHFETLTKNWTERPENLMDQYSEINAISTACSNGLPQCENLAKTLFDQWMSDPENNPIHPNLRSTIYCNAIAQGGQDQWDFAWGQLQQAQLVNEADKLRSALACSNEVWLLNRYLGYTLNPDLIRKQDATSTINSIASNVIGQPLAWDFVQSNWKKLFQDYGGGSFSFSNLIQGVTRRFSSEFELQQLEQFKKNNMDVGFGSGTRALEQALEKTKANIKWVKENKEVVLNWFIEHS
Description: (§1) Chemical and biochemical materials were purchased from Sigma-Aldrich (Poznań, Poland) and Avantor Performance Materials (Gliwice, Poland), and were used without further purification. Fluorogenic substrate Ala-AMC (L-alanine-4-methylcoumaryl-7-amide) was purchased from PeptaNova (Sandhausen, Germany). Microsomal alanyl aminopeptidase from porcine kidney (SsAPN) was purchased from Sigma-Aldrich (Poznań, Poland), and recombinant human alanine aminopeptidase (HsAPN) from R&D System (Minneapolis, MN, USA). Leucine aminopeptidase from porcine kidney (SsLAP) and barley seeds (HvLAP) were isolated and purified according to the procedures described previously. ^1H, ^13C, and ^31P NMR spectra were recorded on a 400YH (JEOL, Tokyo, Japan) spectrometer at 295 K. Mass spectra analyses were performed on a spectrometer LC-MS QDa (Waters e2695, 2489 UV/Vis Detector, Acquity QDa detector). HRMS spectra were registered using a Waters LCT Premier XE mass spectrometer (electrospray ionization, ESI) (Waters, Milford, MA, USA). The progress of the enzymatic reactions was monitored spectrophotometrically (UV-VIS Spectrophotometer, JASCO V-730) by following the change in absorbance at 405 nm (formation of p-nitroaniline), or by measuring fluorescence with a spectrofluorometer SpectraMax Gemini EM (Molecular Devices, San Jose, CA, USA) operating at two wavelengths: excitation 355 nm and emission 460 nm (for AMC).
(§2) The current studies followed the methodologies of the enzyme kinetic experiments, with calculation of the inhibition constants, and the mechanism of inhibition, which are presented in detail in our previous papers: For microsomal alanyl aminopeptidase from porcine kidney, recombinant human alanine aminopeptidase, leucine aminopeptidase from porcine kidney, and leucine aminopeptidase from barley seeds ([…]).

[2] = molecular target: T2, recombinant human alanine aminopeptidase (HsAPN) (Homo sapiens, UniProt P15144); assay: Inhibition of recombinant human alanine aminopeptidase (enzyme kinetics); format: biochemical; conditions: for Ki: human APN; for Activity for human APN (in words): summary statement
T2 construct: purchased R&D System (Minneapolis, MN, USA)
T2 sequence (P15144 whole entry): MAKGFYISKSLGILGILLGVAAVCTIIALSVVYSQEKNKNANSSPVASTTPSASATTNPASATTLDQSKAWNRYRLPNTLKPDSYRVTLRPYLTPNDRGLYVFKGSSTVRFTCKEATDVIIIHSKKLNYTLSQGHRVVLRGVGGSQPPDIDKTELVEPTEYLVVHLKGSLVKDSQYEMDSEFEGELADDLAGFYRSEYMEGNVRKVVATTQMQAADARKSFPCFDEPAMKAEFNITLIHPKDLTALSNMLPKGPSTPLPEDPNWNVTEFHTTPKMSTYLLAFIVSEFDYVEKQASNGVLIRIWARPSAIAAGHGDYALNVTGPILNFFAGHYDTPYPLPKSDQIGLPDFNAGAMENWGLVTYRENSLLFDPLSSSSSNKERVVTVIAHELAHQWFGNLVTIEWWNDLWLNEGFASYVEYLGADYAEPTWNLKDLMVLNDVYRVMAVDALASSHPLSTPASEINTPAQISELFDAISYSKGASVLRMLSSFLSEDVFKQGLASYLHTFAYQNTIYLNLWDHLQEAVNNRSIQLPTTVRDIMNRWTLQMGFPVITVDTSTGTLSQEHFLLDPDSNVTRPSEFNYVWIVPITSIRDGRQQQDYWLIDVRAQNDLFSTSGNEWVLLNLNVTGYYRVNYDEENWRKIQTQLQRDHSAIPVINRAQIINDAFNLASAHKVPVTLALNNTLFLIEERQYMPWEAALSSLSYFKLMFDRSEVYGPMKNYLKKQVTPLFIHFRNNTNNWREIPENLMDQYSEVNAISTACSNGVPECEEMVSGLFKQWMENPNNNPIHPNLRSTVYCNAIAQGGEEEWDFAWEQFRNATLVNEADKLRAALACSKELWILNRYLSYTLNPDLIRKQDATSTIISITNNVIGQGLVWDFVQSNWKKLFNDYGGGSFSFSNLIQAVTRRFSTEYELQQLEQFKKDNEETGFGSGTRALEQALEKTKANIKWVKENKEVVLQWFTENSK
Description: as §1, §2

[3] = molecular target: T3, leucine aminopeptidase from porcine kidney (SsLAP) (Sus scrofa, UniProt P28839); assay: Inhibition of porcine kidney leucine aminopeptidase (enzyme kinetics); format: biochemical; conditions: porcine kidney LAP; compounds assayed as racemic mixtures
T3 construct: Leucine aminopeptidase from porcine kidney (SsLAP) [26] and barley seeds (HvLAP) [21] were isolated and purified; from tissue; host or cells: porcine kidney
T3 sequence (P28839 1-519): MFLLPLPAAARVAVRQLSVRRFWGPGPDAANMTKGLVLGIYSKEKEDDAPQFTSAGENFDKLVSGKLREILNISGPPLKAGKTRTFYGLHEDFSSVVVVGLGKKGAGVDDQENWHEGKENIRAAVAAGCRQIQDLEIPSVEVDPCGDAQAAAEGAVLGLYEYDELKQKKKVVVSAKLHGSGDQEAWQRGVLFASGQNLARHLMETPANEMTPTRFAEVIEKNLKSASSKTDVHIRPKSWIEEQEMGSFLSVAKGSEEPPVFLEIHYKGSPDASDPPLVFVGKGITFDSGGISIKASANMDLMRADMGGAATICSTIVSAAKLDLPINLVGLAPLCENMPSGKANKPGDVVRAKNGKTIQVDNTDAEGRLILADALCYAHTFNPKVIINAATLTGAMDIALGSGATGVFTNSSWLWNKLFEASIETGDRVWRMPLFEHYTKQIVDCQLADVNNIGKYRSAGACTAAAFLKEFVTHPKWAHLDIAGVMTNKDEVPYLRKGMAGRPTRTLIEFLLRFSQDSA
Description: as §1, §2

thermolysin = conditions: competitive tight-binding inhibitor; cited from earlier work
[4] = molecular target: T1, microsomal alanyl aminopeptidase from porcine kidney (SsAPN); design: method as in doi:10.1016/j.tetlet.2011.04.037; conditions: porcine APN; reference compound, reported previously; cited from earlier work
[5] = molecular target: T3, leucine aminopeptidase from porcine kidney (SsLAP); design: method as in doi:10.1016/j.tetlet.2011.04.037; conditions: porcine kidney LAP; reference compound, reported previously; cited from earlier work
[6] = compounds assayed as racemic mixtures, read-out: Ki HsAPN

Ki [1] [µM] | Ki ([2]; value of the abstract, read-out: Ki human alanyl aminopeptidase) [µM] | Ki [2, 6] [µM] | Activity for human APN (in words) [2] | Ki [3] [µM] | Structure (SMILES) | Ki thermolysin (in words) (thermolysin) | Ki [4] [µM] | Ki [5] [µM]
7.7 | 0.102 | 0.1 | potent submicromolar activity | 107 | NC(CCc1ccccc1)P(=O)(O)CN(CC(=O)O)Cc1ccc(Cl)cc1Cl (stereo not drawn) [6a, N-{[1-Amino-3-phenylpropyl(hydroxy)phosphoryl]methyl}-N-2,4-dichlorobenzylaminoacetic acid] |  |  | 
5.8 |  | 0.13 | potent submicromolar activity | 168 | NC(CCc1ccccc1)P(=O)(O)CN(CC(=O)O)Cc1ccc(Br)cc1 (stereo not drawn) [6b, N-{[1-Amino-3-phenylpropyl(hydroxy)phosphoryl]methyl}-N-4-bromobenzylaminoacetic acid] |  |  | 
34 |  | 1.4 |  | 27 | NC(CCc1ccccc1)P(=O)(O)CN(CC(=O)O)Cc1ccc(C(=O)O)cc1 (stereo not drawn) [6c, N-{[1-Amino-3-phenylpropyl(hydroxy)phosphoryl]methyl}-N-4-carboxybenzylaminoacetic acid] |  |  | 
17 |  | 0.24 | potent submicromolar activity | 53 | NC(CCc1ccccc1)P(=O)(O)CN(CC(=O)O)Cc1ccc([N+](=O)[O-])cc1 (stereo not drawn) [6d, N-{[1-Amino-3-phenylpropyl(hydroxy)phosphoryl]methyl}-N-4-nitrobenzylaminoacetic acid] |  |  | 
63 |  |  |  | 29 | NC(CCc1ccccc1)P(=O)(O)CNCC(=O)O (stereo not drawn) [6g, N-{[1-Amino-3-phenylpropyl(hydroxy)phosphoryl]methyl}aminoacetic acid] |  |  | 
 |  |  |  |  | CC(C)CC(NP(=O)(O)C(Cc1ccccc1)NC(=O)OCc1ccccc1)C(=O)NC(C)C(=O)O (stereo not drawn) [Cbz-PheP[NH]Leu-Ala-OH] | picomolar range |  | 
 |  |  |  |  | NC(CCc1ccccc1)P(=O)(O)CN(CC(=O)O)Cc1ccccc1 (stereo not drawn) [compound 1] |  | 3 | 52
